Some test systems named below: HCC-2998 colon; SF-295 CNS; CCRF-CEM leukemia; NCI/ADR-RES ovarian; SNB-19 CNS; SF-268 CNS; NCI-H226 lung; RXF 393 renal; LOX IMVI melanoma; TK-10 renal.
Assay in all cases: DTP human tumour cell line panel, 48 h

This passage reports GI50 and TGI results from PubChem BioAssay (NCI).

Each structure is given as a SMILES string.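 Test compounds were applied to cells in 96-well plates for 48 hours at 5 doses. GI50 = concentration required for 50% inhibition of growth. The concentration for full growth arrest is given as TGI.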

For `CCC(C)n1cc(C)c2c(C(=O)NCc3c(C)cc(C)[nH]c3=O)cc(Br)cc21` (stereo not given), the GI50 (usually the concentration that inhibits growth by half) with HCC-2998 colon is 52.4 µM; in the experiment on SF-295 CNS it was 29.9 µM; with CCRF-CEM leukemia, 30.8 µM; in the experiment on NCI/ADR-RES ovarian, 33.8 µM; in the experiment on SNB-19 CNS, over 100 µM; with SF-268 CNS it was 72.3 µM. The GI50 was 57.5 µM with NCI-H226 lung, 27.6 µM in the experiment on RXF 393 renal, 32.8 µM with LOX IMVI melanoma and over 100 µM with TK-10 renal. Further, the TGI in the experiment on HCC-2998 colon, in the experiment with SF-295 CNS, in the experiment with CCRF-CEM leukemia, in the experiment with NCI/ADR-RES ovarian, in the experiment on SNB-19 CNS and with SF-268 CNS was over 100 µM throughout. Moreover, the TGI in the experiment on NCI-H226 lung, with RXF 393 renal, with LOX IMVI melanoma and in the experiment with TK-10 renal was over 100 µM throughout.

As for `C=C(C)[C@@H]1CC[C@]2(C)[C@H](C(=O)C=C3[C@@H]4C[C@](C)(C(=O)N5CCN(C)CC5)CC[C@]4(C)CC[C@]32C)[C@@]1(C)CCC#N`, the GI50 in the experiment on HCC-2998 colon is 6.72 µM; with SF-295 CNS it was 7.75 µM; with CCRF-CEM leukemia, 6.62 µM; in the experiment on NCI/ADR-RES ovarian, 6.83 µM; with SNB-19 CNS, 7.87 µM; in the experiment on SF-268 CNS, 7.26 µM. Also, the GI50 was 7.42 µM with NCI-H226 lung, 5.32 µM in the experiment on RXF 393 renal, 6.24 µM with LOX IMVI melanoma and 8.16 µM with TK-10 renal. In addition, the TGI (as a rule, the concentration at which net growth stops) with HCC-2998 colon came to 13.6 µM; with SF-295 CNS, 15.2 µM; in the experiment on CCRF-CEM leukemia, 16.3 µM; in the experiment on NCI/ADR-RES ovarian, 13.9 µM; in the experiment on SNB-19 CNS, 14.9 µM; with SF-268 CNS it was 15.2 µM. In addition, the total growth inhibition concentration (TGI) in the experiment on NCI-H226 lung is 15.9 µM; with RXF 393 renal it was 11.4 µM; with LOX IMVI melanoma it was 12.6 µM; with TK-10 renal it was 15.5 µM.

As to `CCCCCCCCCCCCCCCCCC1=NCCN1CS(=O)(=O)O`, the GI50 in the experiment with HCC-2998 colon was 17 µM; in the experiment on SF-295 CNS, 3.55 µM; in the experiment on CCRF-CEM leukemia it was 3.96 µM; in the experiment with NCI/ADR-RES ovarian, 16.1 µM; with SNB-19 CNS, 17.9 µM; in the experiment with SF-268 CNS it was 13.9 µM. In addition, the GI50 with NCI-H226 lung is 17.4 µM; with RXF 393 renal it was 15.4 µM; with LOX IMVI melanoma it was 2.86 µM; in the experiment with TK-10 renal, 18.6 µM. Also, the total growth inhibition concentration (TGI) is 34.4 µM in the experiment on HCC-2998 colon; 16.5 µM in the experiment on SF-295 CNS; over 100 µM in the experiment with CCRF-CEM leukemia; 35.3 µM with NCI/ADR-RES ovarian; 40.9 µM in the experiment with SNB-19 CNS; 30.2 µM with SF-268 CNS. Moreover, the total growth inhibition concentration (TGI) came out at 40.1 µM with NCI-H226 lung, 35.6 µM in the experiment with RXF 393 renal, 12.5 µM with LOX IMVI melanoma and 35.4 µM with TK-10 renal.
